≈ marks a conversion by molar mass, not a printed value.
Columns and labels:
SH-SY5Y = assay: Growth inhibition, SRB assay, 72 hours; assay type: cell-based; details: SH-SY5Y neuroblastoma
IGROV-1 = assay: Phospho-AKT levels by western blotting; assay type: cell-based; details: ovarian cancer cell line IGROV-1
HCT116 tumours = assay: Phospho-AKT levels in HCT116 tumours; assay type: in vivo, mice
γH2AX = γH2AX foci formation (DNA damage marker); details: in vitro and in vivo
HDAC-8 = HDAC-8 (Homo sapiens, UniProt Q9BY41); assay: Enzyme inhibition activity, Fluor-de-Lys kit; assay type: biochemical
HDAC-8, sequence (Q9BY41 whole entry): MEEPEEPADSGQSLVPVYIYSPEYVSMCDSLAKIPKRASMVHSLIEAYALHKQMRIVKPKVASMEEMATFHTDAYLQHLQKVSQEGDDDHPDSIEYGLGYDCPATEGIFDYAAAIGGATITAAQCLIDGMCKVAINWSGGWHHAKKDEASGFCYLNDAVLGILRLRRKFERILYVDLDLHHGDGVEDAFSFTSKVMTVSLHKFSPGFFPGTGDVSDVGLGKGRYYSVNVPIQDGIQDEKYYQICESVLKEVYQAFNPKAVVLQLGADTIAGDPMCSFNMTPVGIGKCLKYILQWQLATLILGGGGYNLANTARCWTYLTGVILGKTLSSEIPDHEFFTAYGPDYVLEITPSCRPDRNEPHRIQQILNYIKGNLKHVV
Description: HDAC-C1A is a particularly preferred HDAC6 inhibitor of the invention. […] HDAC-C1A is approximately 7-fold more specific for HDAC6 than for HDAC-8 and approximately 17-fold more specific for HDAC6 when compared with HDAC1 (see Table 1). […] As brain permeability remains a major limitation for drug treatment of CNS disorders, HDAC-C1A, or compounds derived from HDAC-C1A, appear to be very promising drug candidates.
FIG. 20 (Table 1): Enzyme inhibition activity using HeLa nuclear extract and the Fluor-de-Lys kit.

caco-2 cells = assay: caco-2 transwell permeability assay
ABC transporters = assay: Expression of ABC transporters (protein and mRNA) in tumours; assay type: in vivo, mice; details: 14 days of treatment
HCT116 cells = assay: Acetylated PTEN and PTEN expression; assay type: cell-based, human
Protocol: FIG. 12. HDAC-C1A treatment is associated with an increase of phopsho-AKT that can be reversed by PI3K/AKT/mTOR inhibitors. […] Similarly, Phospho-Pras 40 seems to increase following treatment with HDAC-C1A. Densitometry data could reinforce this statement (ratio between the total form and the Phospho form of Pras40 that decreases at 24 hours). […] No difference could be seen in endometrial cancer cell line, […]. C. […] E. BEZ-235 can fully reverse the increase of Phospho-AKT mediated by HDAC-C1A in HCT-116 cells. BEZ-235 and HDAC-C1A were co-incubated at the indicated time and concentrations.
FIG. 17. A. Dose and time impact of Tubastatin A on acetylated form of tubulin and histones H3 and H4 and on phospho-AKT levels that could be reversed with BEZ-235 in HCT-116 cells. […] HCT116 were immunoprecipitation with PTEN and stained with HDAC1 or HDAC6, immunoprecipitation with HDAC6 and stained with PTEN. No HDAC1 could have been detected in contrast with HDAC6. There was no effect of the different inhibitors on the different protein levels.
PTEN protein expression was not altered. In vivo, on the gene array, the mRNA levels of PTEN were not altered in HCT116 xenograft model following treatment with HDAC-C1A after 1 and 14 days when compared with vehicle treated group (FIG. 7).
We have shown that HDAC-C1A is associated with increased acetylation of α-tubulin, acetyl HSP90 and acetyl PTEN with only a minor effect on the regulation of the genes (less than 0.7% of the genes have been de-regulated after 14 days of treatment in vivo). We believe that the acetylation of PTEN, via the inhibition of HDAC6, leads to an increase of P-AKT. […] No effect of BEZ235 could be seen on the acetylated status of α-tubulin and histones H3 and H4.

[1] = tested on: panel of 19 cancer cell lines; assay: Growth inhibition, SRB assay, 72 hours; assay type: cell-based
A2780 cells = assay: Growth inhibition (GI50); assay type: cell-based, human
ABCG2 = biological target: T1, ABCG2 (Homo sapiens, UniProt Q9UNQ0); assay: Impact of ABCG2 on cytotoxicity, SRB assay, MCF7-MX vs MCF7
T1 sequence (Q9UNQ0 1-655): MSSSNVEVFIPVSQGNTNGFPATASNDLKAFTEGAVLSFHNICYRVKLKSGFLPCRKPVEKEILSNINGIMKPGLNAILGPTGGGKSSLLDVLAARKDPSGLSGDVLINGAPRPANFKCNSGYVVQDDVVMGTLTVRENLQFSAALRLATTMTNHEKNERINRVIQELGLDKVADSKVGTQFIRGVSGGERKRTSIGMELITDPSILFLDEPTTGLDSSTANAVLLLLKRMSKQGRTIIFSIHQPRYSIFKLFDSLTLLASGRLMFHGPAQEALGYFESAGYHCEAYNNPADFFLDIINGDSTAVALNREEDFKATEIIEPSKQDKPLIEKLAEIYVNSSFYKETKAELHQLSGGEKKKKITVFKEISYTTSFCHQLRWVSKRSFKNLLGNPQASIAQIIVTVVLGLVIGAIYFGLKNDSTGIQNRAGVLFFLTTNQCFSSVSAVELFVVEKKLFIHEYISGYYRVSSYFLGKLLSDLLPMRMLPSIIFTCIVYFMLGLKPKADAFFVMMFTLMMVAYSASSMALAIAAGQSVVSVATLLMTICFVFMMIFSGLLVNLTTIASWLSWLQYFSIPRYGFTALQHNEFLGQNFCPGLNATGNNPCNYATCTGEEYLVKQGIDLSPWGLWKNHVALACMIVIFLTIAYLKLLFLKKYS

Compound: CC(/C=C/C(=O)NO)=C\c1ccc(NS(=O)(=O)c2ccc(N(CCCl)CCCl)cc2)cc1 [HDAC-C1A]
- GI50 (SH-SY5Y): 0.09 µg/mL (≈ 0.181 µM)
- P-AKT levels (IGROV-1): increased
- P-AKT in tumours (HCT116 tumours; HDAC-C1A alone 20 mg/kg, 6 hours): up-regulation
- P-AKT in tumours (HCT116 tumours; HDAC-C1A combined with API-2, 24 hours after single injection): still showed increased P-AKT
- P-AKT in tumours (HCT116 tumours; combination regimen BEZ-235 + HDAC-C1A, 6 hours): No P-AKT was detected
- γH2AX foci formation (γH2AX): time and a dose dependent increase
- fold more specific for HDAC6 than for HDAC-8 (HDAC-8): approximately 7 fold
- permeability across caco-2 cells (caco-2 cells; Caco-2): relatively good permeability
- substrate of the ABC transporters (caco-2 cells; Caco-2): non substrate
- permeability (PappA-B) (caco-2 cells; caco-2 cells): 5.1 ×10⁻⁶ cm/s
- PappB-A/PappA-B ratio (caco-2 cells; ratio greater than 3 = actively effluxed): 2.8
- expression of ABC transporters vs vehicle (ABC transporters): No difference
- PTEN protein expression (HCT116 cells): not altered
- acetyl form of PTEN (HCT116 cells; 4 h and 24 h, 1 μM and 10 μM): dose and time dependent increase
- mean GI50 [1]: 2 ± 0.4 µg/mL
- GI50 (A2780 cells): 700 nM
- fold resistance (GI50 ratio) MCF7-MX vs parental MCF7 (ABCG2; ABCG2 overexpressing): 2.8 fold
- reversal of resistance by FTC in MCF7-MX cells (ABCG2; FTC, specific inhibitor of ABCG2): 5.2 fold

— patent publication US20140294856A1, “COMBINATION TREATMENT COMPRISING A HDAC6 INHIBITOR AND AN AKT INHIBITOR” (priority 2011, published 2014)
